One data set can be described thus: Reverse mutation test. Here is the method:
A reverse mutagenicity test was performed using the compound of Example 1 (b) of the present specification, hydrochloride of 5,7-dimethyl-2-(1-piperazinyl)benzoxazole (C), hydrochloride of 5-chloro-7-methyl-2-(4-methyl-1-piperazinyl)benzoxazole (D), and hydrochloride of 5-chloro-7-methyl-2-(4-methyl-1-homopiperazinyl) benzoxazole (E) (compounds disclosed in Japanese Patent Publication (KOKAI) No. 10-29987/1998), and the compound described in Reference Example 4 of the present specification, i.e., hydrochloride of 5-chloro-7-methyl-2-(1-piperazinyl) benzoxazole (F) according to the method of T. Matsushima et al. (Noropoth K. H., Springer, Berlin-Heidelberg-New York, “Short-Term Test Systems For Detecting Carcinogens”, pp. 273–285, 1980) referred by the guideline 471 of ORGANIZATION FOR ECONOMIC CO-OPERATION AND DEVELOPMENT.

A short description of data set [1]: Toxicity test, oral administration to mice. Conditions: 300 mg/kg, suspended in distilled water, 7-week old male mice. The class given is in vivo. How it is done:
The compound of Example 1 (b) gave no death of the animal at a dose of 300 mg/kg.

For data set [2], the system named is large bowel transportation ability of normal mice. Nature of the data set: Effect on large bowel transportation ability of normal mice (glass bead excretion). Conditions: ddY male mice, bead inserted after 30 minutes. The class given is in vivo, mouse. How it is done:
G. et al. [Drug Dev. Res., 9, 241-247, (1986)] was determined as follows. Each test compound was orally administered to 5- to 7-week old ddY male mice starved for about 4 hours. […] After the insertion of the glass bead, time (second) from the insertion to excretion of the bead from the anus was measured, and the time was used as an index of large bowel transportation ability. The test was performed by using groups of mice each consisting of 9 to 11 mice, and all of the procedures were performed under no anesthesia.

The test system of data set [3] is rat diarrhea under restriction stress. As to the kind of experiment: Inhibitory action for rat diarrhea under restriction stress. It is filed as in vivo. The note with it: oral, 30 min before restraint, male Wistar rats, 3 hours, nonlinear least square method. How it is done:
L. Williams et al. [GASTROENTEROLOGY, 94, 611–621 (1988)] was determined as follows, and the results were analyzed by the nonlinear least square method. 8-Week old male Wistar rats were starved from the evening of the day before the test. Each test compound was orally administered to the rats. After 30 minutes, the rats were constrained by binding of their fore-limbs and hind-limbs with wires. The rats were left in individual gages on white sheets under luminescent lamps for 3 hours. […] The test was performed with groups of rats each consisting of 8 rats.

Data set [4] is described as follows: Metabolic activity in human liver, in vitro system with S9 fraction. The class given is in vitro ADME. Conditions: 50 μmol/L test compound, 1 mg/mL human liver S9, NADPH production system, 37 °C, 15 minutes. How it is done:
The test was performed in an in vitro system utilizing human liver S9 fraction in the presence of an NADPH production system described below. A reaction mixture of a total volume of 125 μL containing components at given final concentrations was prepared (50 μmol/L of test compound, 6 mmol/L of MgCl2.6H2O, 1 mmol/L of β-NADP^+, 10 mmol/L of glucose-6-phosphate (G-6-P), 0.7 U/mL of G-6-P dehydrogenase, 100 mmol/L of potassium phosphate (pH 7.4), 0.1 mmol/L of EDTANa2, and 1 mg/mL of human liver S9), and incubated at 37 C.° for 15 minutes. The reaction was stopped by the addition of 125 μL of N,N-dimethylformamide containing a substance for internal standard. The reaction mixture was centrifuged (2,000×g, 10 minutes), and the supernatant was subjected to HPLC analysis to determine the concentration of unchanged substance. Consumed amount was calculated from the concentration of unchanged substance, and the metabolic rate was represented as activity per unit amount of protein.

Where [5] appears, read: method of Matsushima et al., OECD guideline 471.

The text below walks through data of patent US7045516B1, “Benzoxazole derivatives and drugs containing the same as the active ingredient” (Koichi Shudo, priority 1998, dated 2006).

Like-named read-outs stand apart in the source and are kept apart here.

A word on the ED50: it is the midpoint of the dose-response relation. A higher ED50 goes with a need for a large dose. With `Cc1cc(Cl)cc2nc(N3CCCNCC3)oc12.Cl` [Example 1 (b), 5-Chloro-2-(1-homopiperazinyl)-7-methylbenzoxazole hydrochloride], the reverse mutagenicity entry in “Reverse mutation test” is “negative”. In addition, the “death of the animal” value in data set [1] is “no death”. Also, the figures for the “time from insertion to excretion of glass bead” value in data set [2] (dose 3 mg/kg oral), in data set [2] (dose 10 mg/kg oral) and in data set [2] (dose 30 mg/kg oral) were 218.39 s, 313.60 s and 239.11 s, respectively. In addition, in data set [3] (Rattus norvegicus), the ED50 is 0.25 µg/kg.
Turning to `Cc1cc(C)c2oc(N3CCNCC3)nc2c1.Cl` [Hydrochloride of C, hydrochloride of 5,7-dimethyl-2-(1-piperazinyl)benzoxazole], the reverse mutagenicity entry in the data set “Reverse mutation test” (setting [5]) is listed as “negative”. For the same molecule, the “time from insertion to excretion of glass bead” value in data set [2] (dose 3 mg/kg oral) worked out at 234.01 s; in data set [2] (dose 10 mg/kg oral), 251.00 s; in data set [2] (dose 30 mg/kg oral), 357.08 s. This molecule returned an ED50 value in data set [3] of 27.2 µg/kg. The molecule further displayed a Metabolic activity in data set [4] of 0.06 nmol/min/mg protein.
For the molecule `Cc1cc(Cl)cc2nc(N3CCN(C)CC3)oc12.Cl` [Hydrochloride of D, hydrochloride of 5-chloro-7-methyl-2-(4-methyl-1-piperazinyl) benzoxazole], the reverse mutagenicity result in “Reverse mutation test” (setting [5]) was “negative”. Also, the Metabolic activity in data set [4] came to 0.87 nmol/min/mg protein.
